Assay results taken from patent US5190741A, “Agents for diagnosing and treating melanomas, aromatic halogenated derivatives usable as such agents and their preparation” (Institut National de la Sante et de la Recherche Medicale …, priority 1989, dated 1993).
Read-outs that look alike come from different tables or passages of the source.

Columns and labels:
[1] = Tissue distribution in C57 BL6 mice bearing B16; type: in vivo, mouse; conditions: mouse, iv, 3 umol/animal
Method: (§1) The study of the tissue distribution of the ^125 I labelled compounds was performed in mice bearing grafted melanomas (cf. autoradiograms above). […] The animals are sacrificed at different time intervals of 1 to 24 hours after the injection. The blood is collected and the principal organs are excised. Aliquots are weighed and the radioactivity of the samples is measured in a […] 1191 counter (analytic tracer). The counting yield for iodine 125 is 60%. The results are expressed: as a percentage of the injected dose bound per g of tissue (% ID/g); in the form of the ratios [formula] This ratio reflects more precisely the selectivity of a molecule for an organ (tables 2, 4, 6, 8, 10 and 12).

B16 murine melanoma = assay: Tissue distribution in C57 BL6 mice bearing B16; type: in vivo, mouse
Method: as §1

[2] = system: Beu melanic human melanoma; assay: Autoradiograms, nu/nu SSCUP nude mice bearing Beu; type: in vivo
Method: The autoradiograms are carried out in mice bearing grafted melanomas:
b. nu/nu SSCUP nudes bearing heterotransplants of melanic (Beu) or amelanic (Dau) human melanomas).
The animals bearing grafted tumors receive the labelled compounds in the form of the hydrochloride in saline solution (3.7 to 5×10^5 Bq/animal) in a caudal vein. At different time intervals after the administration of the compounds (from 15 minutes to 24 hours) the mice are anesthetized with ether and plunged into liquid nitrogen.
30 μm sections, parallel to a sagittal plane, are prepared in a freezing microtome (TS 260, SLEE) according to the protocol described by Ullberg.

[3] = system: Beu melanic human melanoma; assay: Scintillation imaging, nu/nu SSCUP nude mice bearing Beu; type: in vivo; conditions: 3 to 17 h after injection
Source text: (§2) The mice bearing grafted tumors are anesthetized by the i.p. injection of sodium pentobarbital 1/5 and immobilized under a scintillation camera (Gammatome II, CGR) equipped with a pinhole 3-360 collimator, sensitivity 3.2 10^-4.
nu/nu SSCUP nudes bearing human melanomas Beu and Dau.
(§3) The scanning observations have also been carried out after the injection of B into the following mice:
nu/nu SSCUP nudes bearing the Beu heterotransplant.

[4] = LD50 determination, i.v. (Karber and Behrens); conditions: mouse, in vivo, iv
Source text: (§4) The determination of the LD50 is made in the mouse after i.v. injection of the molecules according to the methodology described by Karber and Behrens.
(§5) 6 weeks old OF 1 male mice

[5] = system: 6 weeks old OF 1 male mice; assay: LD50 determination, i.v. (Karber and Behrens); conditions: mouse, in vivo, iv
Source text: as §4, §5

B16 melanoma = assay: Scintillation imaging, C57 BL6 mice bearing B16; type: in vivo, mouse; conditions: 3 to 17 h after injection
Source text: as §2
C57 BL6 bearing B16 melanomas at different stages of development.
as §3
C57 BL6 bearing the B16 melanoma

[6] = kidney, read-out: kidney % ID/g
[7] = muscle, read-out: muscle % ID/g
[8] = plasma, read-out: plasma % ID/g

CCNCCNC(=O)c1ccc(I)cc1 [Derivative B, N-(2-ethylaminoethyl) 4-iodo benzamide]
tissue uptake at 1 h ([1]; blood, read-out: blood % ID/g): 1.31 %ID/g | tissue uptake at 2 h ([1]; blood, read-out: blood % ID/g): 0.67 %ID/g | tissue uptake at 4 h ([1]; blood, read-out: blood % ID/g): 0.27 %ID/g | tissue uptake at 6 h ([1]; blood, read-out: blood % ID/g): 0.14 %ID/g | tissue uptake at 24 h ([1]; blood, read-out: blood % ID/g): 0.03 %ID/g | tissue uptake at 1 h ([1]; brain, read-out: brain % ID/g): 3.26 %ID/g | tissue uptake at 2 h ([1]; brain, read-out: brain % ID/g): 2.09 %ID/g | tissue uptake at 4 h ([1]; brain, read-out: brain % ID/g): 1.17 %ID/g | tissue uptake at 6 h ([1]; brain, read-out: brain % ID/g): 0.5 %ID/g | tissue uptake at 24 h ([1]; brain, read-out: brain % ID/g): 0.01 %ID/g | tissue uptake at 1 h ([1]; eye, read-out: eye % ID/g): 0.45 %ID/g | tissue uptake at 2 h ([1]; eye, read-out: eye % ID/g): 0.43 %ID/g | tissue uptake at 4 h ([1]; eye, read-out: eye % ID/g): 0.42 %ID/g | tissue uptake at 6 h ([1]; eye, read-out: eye % ID/g): 0.38 %ID/g | tissue uptake at 24 h ([1]; eye, read-out: eye % ID/g): 0.24 %ID/g | tissue uptake at 1 h [1, 6]: 14.4 %ID/g | tissue uptake at 2 h [1, 6]: 8.64 %ID/g | tissue uptake at 4 h [1, 6]: 4.42 %ID/g | tissue uptake at 6 h [1, 6]: 1.86 %ID/g | tissue uptake at 24 h [1, 6]: 0.16 %ID/g | tissue uptake at 1 h ([1]; liver, read-out: liver % ID/g): 6.96 %ID/g | tissue uptake at 2 h ([1]; liver, read-out: liver % ID/g): 3.72 %ID/g | tissue uptake at 4 h ([1]; liver, read-out: liver % ID/g): 2.05 %ID/g | tissue uptake at 6 h ([1]; liver, read-out: liver % ID/g): 0.96 %ID/g | tissue uptake at 24 h ([1]; liver, read-out: liver % ID/g): 0.22 %ID/g | tissue uptake at 1 h ([1]; lung, read-out: lungs % ID/g): 14.4 %ID/g | tissue uptake at 2 h ([1]; lung, read-out: lungs % ID/g): 8 %ID/g | tissue uptake at 4 h ([1]; lung, read-out: lungs % ID/g): 4.49 %ID/g | tissue uptake at 6 h ([1]; lung, read-out: lungs % ID/g): 2.1 %ID/g | tissue uptake at 24 h ([1]; lung, read-out: lungs % ID/g): 0.05 %ID/g | tissue uptake at 1 h [1, 7]: 2.55 %ID/g | tissue uptake at 2 h [1, 7]: 1.33 %ID/g | tissue uptake at 4 h [1, 7]: 0.67 %ID/g | tissue uptake at 6 h [1, 7]: 0.2 %ID/g | tissue uptake at 24 h [1, 7]: 0.02 %ID/g | tissue uptake at 1 h [1, 8]: 0.73 %ID/g | tissue uptake at 2 h [1, 8]: 0.4 %ID/g | tissue uptake at 4 h [1, 8]: 0.21 %ID/g | tissue uptake at 6 h [1, 8]: 0.13 %ID/g | tissue uptake at 24 h [1, 8]: 0.02 %ID/g | tissue uptake at 1 h ([1]; tumor, read-out: tumor % ID/g): 6.03 %ID/g | tissue uptake at 2 h ([1]; tumor, read-out: tumor % ID/g): 5.73 %ID/g | tissue uptake at 4 h ([1]; tumor, read-out: tumor % ID/g): 4.36 %ID/g | tissue uptake at 6 h ([1]; tumor, read-out: tumor % ID/g): 4.69 %ID/g | tissue uptake at 24 h ([1]; tumor, read-out: tumor % ID/g): 0.49 %ID/g | intratumoral concentrations and ratios compared with A (B16 murine melanoma; 4 to 8 h, melanic melanomas, preliminary): markedly higher than those observed with A | brain/blood ratio (B16 murine melanoma; 1 h): 2,48 | eye/blood ratio (B16 murine melanoma; 1 h): 9,70 | kidney/blood ratio (B16 murine melanoma; 1 h): 10,92 | liver/blood ratio (B16 murine melanoma; 1 h): 5,32 | lungs/blood ratio (B16 murine melanoma; 1 h): 11,00 | muscle/blood ratio (B16 murine melanoma; 1 h): 1,95 | plasma/blood ratio (B16 murine melanoma; 1 h): 0,56 | tumor/blood ratio (B16 murine melanoma; 1 h): 4,70 | brain/blood ratio (B16 murine melanoma; 2 h): 3,11 | eye/blood ratio (B16 murine melanoma; 2 h): 17,50 | kidney/blood ratio (B16 murine melanoma; 2 h): 12,82 | liver/blood ratio (B16 murine melanoma; 2 h): 5,55 | lungs/blood ratio (B16 murine melanoma; 2 h): 11,94 | muscle/blood ratio (B16 murine melanoma; 2 h): 1,96 | plasma/blood ratio (B16 murine melanoma; 2 h): 0,60 | tumor/blood ratio (B16 murine melanoma; 2 h): 8,51 | brain/blood ratio (B16 murine melanoma; 4 h): 4,33 | eye/blood ratio (B16 murine melanoma; 4 h): 39,70 | kidney/blood ratio (B16 murine melanoma; 4 h): 16,38 | liver/blood ratio (B16 murine melanoma; 4 h): 7,58 | lungs/blood ratio (B16 murine melanoma; 4 h): 16,64 | muscle/blood ratio (B16 murine melanoma; 4 h): 2,49 | plasma/blood ratio (B16 murine melanoma; 4 h): 0,79 | tumor/blood ratio (B16 murine melanoma; 4 h): 16,17 | brain/blood ratio (B16 murine melanoma; 6 h): 3,51 | eye/blood ratio (B16 murine melanoma; 6 h): 73 | kidney/blood ratio (B16 murine melanoma; 6 h): 13,04 | liver/blood ratio (B16 murine melanoma; 6 h): 6,80 | lungs/blood ratio (B16 murine melanoma; 6 h): 14,66 | muscle/blood ratio (B16 murine melanoma; 6 h): 1,47 | plasma/blood ratio (B16 murine melanoma; 6 h): 0,90 | tumor/blood ratio (B16 murine melanoma; 6 h): 36 | contrast index of melanic tumors vs neighbouring muscles or organs, compared with A (B16 murine melanoma; 6 hours): the majority of these indices are higher for B than for A | brain/blood ratio (B16 murine melanoma; 24 h): 0,46 | eye/blood ratio (B16 murine melanoma; 24 h): 200 | kidney/blood ratio (B16 murine melanoma; 24 h): 5,24 | liver/blood ratio (B16 murine melanoma; 24 h): 7,49 | lungs/blood ratio (B16 murine melanoma; 24 h): 1,74 | muscle/blood ratio (B16 murine melanoma; 24 h): 0,75 | plasma/blood ratio (B16 murine melanoma; 24 h): 0,77 | tumor/blood ratio (B16 murine melanoma; 24 h): 16 | concentrations and tumor/blood ratios compared with A (B16 murine melanoma; 24 hours, melanic melanomas, preliminary): lower than those of A | marker of the B16 murine melanoma (B16 murine melanoma; mouse, in vivo): markers of the B16 murine melanoma | darkening along the circumference of the tumor ([2]; 6 h after injection): more pronounced darkening along the circumference of the tumor | time up to which tumor is visible on autoradiogram ([2]; after injection): up to 6 h | tumoral definition [3]: very good tumoral definition | LD50 [4]: 175 mg/kg | LD 0 [5]: 150 mg/kg | LD 100 [5]: 200 mg/kg | tumoral definition (B16 melanoma): very good tumoral definition
